Test results reported in ChEMBL document CHEMBL3856244, “Hydrogen peroxide derived from marine peroxy sesquiterpenoids induces apoptosis in HCT116 human colon cancer cells” (Bioorg Med Chem Lett, 2016).
The source made the active and inactive calls. The rule behind the calls is not given here.

How the values were obtained:
HCT-116 [1] = assay: Cytotoxicity against human HCT116 cells assessed as decrease in cell viability at 6.25 to 200 uM after 17 hrs by MTT assay; type: functional, cell-based
HCT-116 [2] = assay: Induction of H2O2 accumulation in human HCT116 cells at 12.5 uM relative to control; type: functional
HCT-116 [3] = assay: Induction of apoptosis in human HCT116 cells assessed as increase in caspase 3/7 activation at 50 to 200 uM after 17 hrs by luciferase coupled luminescence assay; type: functional, cell-based
HCT-116 [4] = assay: Induction of apoptosis in human HCT116 cells assessed as nuclear condensation at 100 uM after 48 hrs by Hoechst 33342 staining based assay; type: functional, cell-based
HCT-116 [5] = assay: Induction of ROS generation in human HCT116 cells at 12.5 uM after 5 mins by DCFH-DA probe based fluorescence assay relative to control; type: functional, cell-based
[6] = Cytotoxicity against human HCT116 cells assessed as decrease in cell viability after 17 hrs by MTT assay; type: functional, cell-based; conditions: HCT-116, 17 h

| SMILES | Activity (HCT-116 [1]) | fold change (FC) (HCT-116 [2]) | Activity (HCT-116 [3]) | Activity (HCT-116 [4]) | Activity (HCT-116 [5]) | IC50 [6] [µM] |
| --- | --- | --- | --- | --- | --- | --- |
| Cc1ccc2c(c1)[C@H](C(C)C)CC[C@@]2(C)OO | Active | 2 - 3 | Active | Active | Active | 43.7 |
| CC(C)[C@H]1CC[C@H](C)[C@@]23CC[C@@](C)(C=C12)OO3 | Active | 2 - 3 | Active | Active | Active | 38.6 |
| CC1=C[C@@H]2C(=CC1)[C@](C)(OO)CC[C@@H]2C(C)C | Active | 2 - 3 | Active | Active | Active | 61.2 |
